Test system: severe wrinkling on their face
Assay: Topical application of COL-118 to facial wrinkles (Example 18)
Type: in vivo, human
Settings: middle-aged person, topical 0.2% COL-118
Protocol: A middle-aged person has severe wrinkling on their face. They apply 0.2% COL-118 (an α2 adrenergic receptor agonist supplied by CollaGenex Pharmaceuticals, Inc., Newtown, Pa.). Wrinkling is noticeably diminished within 5 minutes by casual observation. After about 10 minutes, nearly all the wrinkles are gone. The effect lasts at least 8 hr.

`Brc1c(NC2=NCCN2)ccc2nccnc12` [COL-118] was tested, and the “Duration of the wrinkle-reducing effect” value was “at least 8 hr”, the “Time after which nearly all the wrinkles are gone” value was “about 10 minutes” and the “Time until wrinkling is noticeably diminished (casual observation)” value was ≤ 5 min.

Source: patent US8440688B2, “Compounds, formulations and methods for reducing skin wrinkles, creasing and sagging” (Galderma Laboratories Inc., priority 2007, dated 2013)
